The record followed here is paper doi:10.1101/2022.04.14.488411v1 (biorxiv, 2022).

Data set [1] addresses T1, ABCG2 (Homo sapiens, UniProt Q9UNQ0).
T1 sequence (Q9UNQ0 1-655): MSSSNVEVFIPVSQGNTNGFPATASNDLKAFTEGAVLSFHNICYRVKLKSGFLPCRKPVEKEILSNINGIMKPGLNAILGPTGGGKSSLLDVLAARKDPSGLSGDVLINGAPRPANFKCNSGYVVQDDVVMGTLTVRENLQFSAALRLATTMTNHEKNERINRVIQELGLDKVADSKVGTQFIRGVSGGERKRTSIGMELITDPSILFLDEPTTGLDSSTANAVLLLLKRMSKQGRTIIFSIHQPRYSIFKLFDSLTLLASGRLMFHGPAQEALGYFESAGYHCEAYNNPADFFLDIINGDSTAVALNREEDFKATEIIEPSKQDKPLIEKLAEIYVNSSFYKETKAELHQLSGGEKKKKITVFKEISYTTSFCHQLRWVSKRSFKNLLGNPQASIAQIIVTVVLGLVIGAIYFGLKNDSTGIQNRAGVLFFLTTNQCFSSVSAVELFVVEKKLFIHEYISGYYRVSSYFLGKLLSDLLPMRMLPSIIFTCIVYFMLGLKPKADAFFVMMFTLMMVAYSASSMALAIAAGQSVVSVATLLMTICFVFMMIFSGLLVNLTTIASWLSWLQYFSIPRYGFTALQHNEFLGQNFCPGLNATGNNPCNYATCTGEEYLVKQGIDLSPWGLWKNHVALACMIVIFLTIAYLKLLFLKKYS
The data set can be described thus: potentiation of TAK-243 cytotoxicity, Resazurin viability. Type of data set: cell-based.

For data set [2], the system named is RPMI 8226. Put plainly: cells. The settings on record: Homo sapiens, RPMI-8226, 72 h, read-out: IC50 (uM).
The test system of data set [3] is ABCG2. The data set can be described thus: cells. The settings on record: Homo sapiens, RPMI-8226, 72 h, read-out: IC50 (uM).
Data set [4] deals with RPMI 8226. The data set can be described thus: cells. The conditions noted are these: Homo sapiens, RPMI-8226, 72 h, read-out: IC50 (uM). The source holds these as a separate data set.
In data set [5] the test system is RPMI 8226. Put plainly: cells. The conditions noted are these: Homo sapiens, RPMI-8226, 72 h, read-out: IC50 (uM). The source holds these as a separate data set.
Data set [6] has as its system RPMI 8226. The data set can be described thus: cells. The settings on record: Homo sapiens, RPMI-8226, 72 h, read-out: IC50 (nM), TAK-243 alone. Further details: species or system KMS11.
The subject of data set [7] is RPMI 8226. Put plainly: cells. The arrangement: species or system KMS11. The conditions noted are these: Homo sapiens, RPMI-8226, 72 h, read-out: IC50 (nM), TAK-243 alone. The source holds these as a separate data set.
Another data set concerns KMS11. Put plainly: cells. The arrangement: species or system RPMI 8226. The conditions noted are these: Homo sapiens, KMS-11, 72 h, read-out: IC50 (nM).
Another data set deals with A549. Put plainly: cells. The settings on record: Homo sapiens, A549, 72 h, read-out: IC50 (nM).
The test system of a further data set is HEK293. The data set can be described thus: cells. The conditions noted are these: Homo sapiens, HEK293, 72 h, read-out: IC50 (nM).
A further data set has as its system HepG2. Put plainly: cells. The settings on record: Homo sapiens, HepG2, 72 h, read-out: IC50 (nM).
The subject of the next data set is Jurkat. Put plainly: cells. The settings on record: Homo sapiens, Jurkat, 72 h, read-out: IC50 (nM).
The test system of a further data set is K562. The data set can be described thus: cells. The settings on record: Homo sapiens, K562, 72 h, read-out: IC50 (nM).
Another data set concerns MCF7. Put plainly: cells. The settings on record: Homo sapiens, MCF7, 72 h, read-out: IC50 (nM).
The test system of the next data set is MV4-11. The data set can be described thus: cells. The settings on record: Homo sapiens, MV4-11, 72 h, read-out: IC50 (nM).
For a further data set, the system named is NB4. Put plainly: cells. The settings on record: Homo sapiens, NB-4, 72 h, read-out: IC50 (nM).
The test system of another data set is OCI-AML2. The data set can be described thus: cells. The conditions noted are these: Homo sapiens, OCI-AML2, 72 h, read-out: IC50 (nM).
In another data set the test system is OCI-M2. Put plainly: cells. The settings on record: OCI-M2, 72 h, read-out: IC50 (nM).
For another data set, the system named is U937. The data set can be described thus: cells. The conditions noted are these: Homo sapiens, U-937, 72 h, read-out: IC50 (nM).
For a further data set, the system named is MDAY-D2. The data set can be described thus: cells. The settings on record: Mus musculus, MDAY-D2, 72 h, read-out: IC50 (nM).
Data set [8] concerns RPMI 8226. Put plainly: cells. The settings on record: Homo sapiens, RPMI-8226, 72 h, read-out: IC50 (nM).

Like-named read-outs stand apart in the source and are kept apart here. A value given as a limit tells only on which side of the number the result lay.

In general, IC50 refers to the midpoint of a concentration-inhibition curve. As to `Clc1cc2c(NC3CCCC3)nnc(-c3ccncc3)c2cc1Cl` [A-196], at ABCG2 [1], the “apparent IC50” value turned out to be 521.8 nM. Further, the IC50 in the data set with RPMI 8226 [2] was above 10 µM.

For `COc1cc(-c2cn(C)c(=O)c3cnccc23)c(OC)cc1CN(C)C` [BI-9564], the IC50 in the data set on ABCG2 [3] and in the data set with RPMI 8226 [4] was above 10 µM each time.

Consider `COc1c(C)cc(NC(=O)c2nn(Cc3ccc(F)cc3)c3c2CN(C(=O)c2ccc[nH]2)C[C@]3(C)C(N)=O)cc1C` [GSK-864], for which the 50% inhibitory concentration (IC50) in the data set with RPMI 8226 [2] was above 10 µM.

Regarding `CO[C@H]1CC[C@H](n2c([C@@H]3CCCC(=O)N3c3ccc(F)c(F)c3)nc3cc(-c4c(C)noc4C)ccc32)CC1` [Inobrodib], the IC50 with RPMI 8226 [4] worked out at 7.62 µM.

For the compound `N#Cc1ccnc(N2C(=O)CC[C@H]2C(=O)N(c2cncc(F)c2)[C@H](C(=O)NC2CC(F)(F)C2)c2ccccc2Cl)c1` [Ivosidenib], the IC50 in the data set with ABCG2 [3] and with RPMI 8226 [4] was above 10 µM throughout.

As for `O=C1c2c(O)ccc(O)c2C(=O)c2c(NCCNCCO)ccc(NCCNCCO)c21` [MTX, mitoxantrone], the IC50 in the data set on RPMI 8226 [5] was found to be 0.0786 µM.

In the case of `COc1ccccc1C(=O)Nc1cc2c(cc1N1CCCC1)n(C)c(=O)n2C` [PFI-4], the IC50 with RPMI 8226 [2] was above 10 µM.

For the compound `NS(=O)(=O)OC[C@@H]1C[C@@H](n2ccc3c(N[C@H]4CCc5ccccc54)ncnc32)C[C@@H]1O` [Pevo, pevonedistat], in the data set on RPMI 8226 [5], the concentration for half-maximal inhibition (IC50) stood at 0.997 µM.

With `COc1ccc(CCc2nc3cc(-c4c(C)noc4C)ccc3n2C[C@H](C)N2CCOCC2)cc1Cl` [SGC-CBP30], the IC50 in the data set on RPMI 8226 [2] was above 10 µM.

`NS(=O)(=O)OC[C@H]1C[C@@H](Nc2ccnc3cc(-c4cccc(SC(F)(F)F)c4)nn23)[C@H](O)[C@@H]1O` [TAK-243]: the IC50 in the data set with RPMI 8226 [6] was 578 nM; in the data set on RPMI 8226 [7], 558 nM; with KMS11 it was 685 nM; in the data set with A549, 1290 nM; with HEK293 it was 177 nM; with HepG2 it was 60.1 nM. The IC50 in the data set with Jurkat was determined as 12.2 nM; in the data set with K562 it was 6.43 nM; with MCF7, 404 nM; with MV4-11, 19.4 nM; in the data set with NB4, 10.1 nM; with OCI-AML2, 27.1 nM. Moreover, the IC50 was 44 nM in the data set with OCI-M2, 17.9 nM in the data set on U937, 1230 nM with MDAY-D2 and 1370 nM with RPMI 8226 [8].

`CCCc1cc(C)[nH]c(=O)c1CNC(=O)c1cc(-c2ccc(N3CCN(C(C)C)CC3)nc2)cc2c1cnn2C(C)C` [UNC1999]: the IC50 with RPMI 8226 [2] is above 10 µM.
